This series deals with mice. Nature of the series: Biological Example 5: acute toxicity experiment of single oral administration in mice. Type of series: in vivo. Particulars: single oral 1000 mg/Kg, Mean ± SD. As to the method:
The mice were fasted one day before the experiment. On the day of the experiment, 6 mice (ICR mice, body weight of 19-21 g, three females and three males) were selected in each experiment group. First of all, one female and one male were selected to orally give 1000 mg/Kg, and observed for 5-10 minutes. If there were no obvious side effects, the remaining 4 animals were orally given the same dose, and observed for 10-15 minutes. If no animal died, the animals were placed in a box to balancedly feed for 7 days. The state was observed and the body weight was recorded daily.
Observation Indexes within 0-15 Minutes after Administration
Activity: restlessness, hyperactivity
Nervous system response: tremor, spasm, convulsion, ataxia, posture abnormality, etc.
Autonomic nerve: exophthalmos, salivation, tears, urination (hematuria), diarrhea, piloerection, breathing, etc.
State of Animal: lethargy, hyperactivity, excitement, hair loss, diarrhea, abnormal behavior, death, etc.

Several values for one entry are separate records, joined by “and”; a condition that tells them apart may be missing. Equal values may be shown once.

With `COCCN1C(=O)CCC(N2C(=O)c3cccc(NC(C)=O)c3C2=O)C1=O` (stereo not shown) [Example 1, 4-acetylamino-2-(1-(2-methoxyethyl)-2,6-dioxopiperidin-3-yl)isoindolin-1,3-dione], the “Daily Body Weight” value (Female mice, Day 1) came to 18.5 ± 0.1 g; the “Daily Body Weight” value (Female mice, Day 2) amounted to 22.8 ± 0.3 g; the “Daily Body Weight” value (Female mice, Day 3) came to 23.2 ± 0.7 g; the “Daily Body Weight” value (Female mice, Day 4) came out at 24.0 ± 0.2 g; the “Daily Body Weight” value (Female mice, Day 5) was 25.3 ± 1.6 g; the “Daily Body Weight” value (Female mice, Day 6) amounted to 25.7 ± 1.6 g. Besides, the “Daily Body Weight” value is 27.1 ± 1.1 g (Female mice, Day 7); 20.1 ± 1.4 g (Male mice, Day 1); 23.8 ± 1.4 g (Male mice, Day 2); 24.9 ± 1.0 g (Male mice, Day 3); 26.3 ± 1.2 g (Male mice, Day 4); 27.7 ± 1.3 g (Male mice, Day 5). Also, the “Daily Body Weight” value (Male mice, Day 6) stood at 29.2 ± 1.4 g and the “Daily Body Weight” value (Male mice, Day 7) is 29.4 ± 1.4 g.
In the case of `COCCN1C(=O)CCC(N2C(=O)c3cccc(N(C)C)c3C2=O)C1=O` (stereo not shown) [Example 3, 4-dimethylamino-2-(1-(2-methoxyethyl)-2,6-dioxopiperidin-3-yl)isoindolin-1,3-dione], the “Daily Body Weight” value runs as follows: (Female mice, Day 1, 1000 mg/kg) 18.3 ± 0.4 g and 18.8 ± 0.4 g; (Female mice, Day 2, 1000 mg/kg) 21.7 ± 0.2 g and 22.1 ± 1.2 g; (Female mice, Day 3, 1000 mg/kg) 22.3 ± 0.2 g and 22.7 ± 0.8 g; (Female mice, Day 4, 1000 mg/kg) 22.6 ± 0.8 g and 23.0 ± 1.4 g; (Female mice, Day 5, 1000 mg/kg) 23.0 ± 1.4 g and 23.7 ± 1.9 g; (Female mice, Day 6, 1000 mg/kg) 22.6 ± 1.3 g and 24.1 ± 1.2 g. Besides, the “Daily Body Weight” value was 22.7 ± 0.4 g and 24.4 ± 1.8 g (Female mice, Day 7, 1000 mg/kg); 18.8 ± 0.7 g and 18.0 ± 0.2 g (Male mice, Day 1, 1000 mg/kg); 23.3 ± 0.1 g and 22.9 ± 0.3 g (Male mice, Day 2, 1000 mg/kg); 24.3 ± 0.1 g and 24.3 ± 0.9 g (Male mice, Day 3, 1000 mg/kg); 25.6 ± 0.7 g and 25.2 ± 1.1 g (Male mice, Day 4, 1000 mg/kg); 26.9 ± 0.8 g and 27.0 ± 1.3 g (Male mice, Day 5, 1000 mg/kg). The “Daily Body Weight” value is 27.9 ± 0.9 g and 28.2 ± 1.9 g (Male mice, Day 6, 1000 mg/kg); 28.6 ± 0.4 g and 28.5 ± 2.7 g (Male mice, Day 7, 1000 mg/kg).
For `COCCN1C(=O)CCC(N2C(=O)c3ccc(F)c(N)c3C2=O)C1=O` (stereo not shown) [Example 9, 4-amino-5-fluoro-2-(1-(2-methoxyethyl)-2,6-dioxopiperidin-3-yl)isoindolin-1,3-dione], the “Daily Body Weight” value is, setting by setting: (Female mice, Day 1) 17.5 ± 0.6 g; (Female mice, Day 2) 22.1 ± 0.9 g; (Female mice, Day 3) 22.1 ± 0.7 g; (Female mice, Day 4) 22.8 ± 0.8 g; (Female mice, Day 5) 22.8 ± 1.0 g; (Female mice, Day 6) 22.7 ± 1.6 g. Further, the “Daily Body Weight” value is 23.6 ± 1.7 g (Female mice, Day 7); 18.3 ± 0.7 g (Male mice, Day 1); 23.6 ± 0.7 g (Male mice, Day 2); 24.1 ± 1.0 g (Male mice, Day 3); 25.9 ± 1.1 g (Male mice, Day 4); 27.2 ± 0.5 g (Male mice, Day 5). The “Daily Body Weight” value (Male mice, Day 6) is given as 26.9 ± 1.4 g and the “Daily Body Weight” value (Male mice, Day 7) was 27.9 ± 1.5 g.
In the case of `CSCCN1C(=O)CCC(N2C(=O)c3cccc(N)c3C2=O)C1=O` (stereo not shown) [Example 11, 4-amino-2-(1-(2-methylthioethyl)-2,6-dioxopiperidin-3-yl)isoindolin-1,3-dione], the “Daily Body Weight” value reads like this: (Female mice, Day 1) 18.1 ± 0.2 g; (Female mice, Day 2) 21.7 ± 0.2 g; (Female mice, Day 3) 22.4 ± 0.1 g; (Female mice, Day 4) 22.4 ± 0.1 g; (Female mice, Day 5) 23.5 ± 0.4 g; (Female mice, Day 6) 23.2 ± 0.8 g. The “Daily Body Weight” value runs as follows: (Female mice, Day 7) 23.2 ± 0.9 g; (Male mice, Day 1) 19.5 ± 0.6 g; (Male mice, Day 2) 23.7 ± 0.8 g; (Male mice, Day 3) 25.4 ± 0.4 g; (Male mice, Day 4) 25.4 ± 0.4 g; (Male mice, Day 5) 27.0 ± 0.5 g. The “Daily Body Weight” value reads like this: (Male mice, Day 6) 29.0 ± 0.7 g; (Male mice, Day 7) 29.8 ± 1.0 g.
Take `CS(=O)(=O)CCN1C(=O)CCC(N2C(=O)c3cccc(N)c3C2=O)C1=O` (stereo not shown) [Example 13, 4-amino-2-(1-(2-methylsulfonylethyl)-2,6-dioxopiperidin-3-yl)isoindolin-1,3-dione]: the “Daily Body Weight” value was 18.8 ± 1.1 g (Female mice, Day 1); 21.3 ± 0.3 g (Female mice, Day 2); 21.8 ± 0.4 g (Female mice, Day 3); 21.8 ± 0.4 g (Female mice, Day 4); 23.0 ± 0.5 g (Female mice, Day 5); 23.2 ± 0.9 g (Female mice, Day 6). Further, the “Daily Body Weight” value is, setting by setting: (Female mice, Day 7) 23.6 ± 0.9 g; (Male mice, Day 1) 19.6 ± 0.7 g; (Male mice, Day 2) 23.1 ± 0.6 g; (Male mice, Day 3) 24.4 ± 0.9 g; (Male mice, Day 4) 24.4 ± 0.9 g; (Male mice, Day 5) 26.5 ± 0.5 g. The “Daily Body Weight” value (Male mice, Day 6) was found to be 28.3 ± 1.3 g and the “Daily Body Weight” value (Male mice, Day 7) is on record as 28.4 ± 0.8 g.
Regarding `COCCCN1C(=O)CCC(N2C(=O)c3cccc(F)c3C2=O)C1=O` (stereo not shown) [Example 17, 4-fluoro-2-(1-(3-methoxypropyl)-2,6-dioxopiperidin-3-yl)isoindolin-1,3-dione], the “Daily Body Weight” value (Female mice, Day 1) was determined as 18.6 ± 1.0 g; the “Daily Body Weight” value (Female mice, Day 2) turned out to be 21.9 ± 0.4 g; the “Daily Body Weight” value (Female mice, Day 3) was determined as 22.7 ± 0.4 g; the “Daily Body Weight” value (Female mice, Day 4) is 22.7 ± 0.4 g; the “Daily Body Weight” value (Female mice, Day 5) is reported as 23.0 ± 0.4 g; the “Daily Body Weight” value (Female mice, Day 6) is on record as 23.1 ± 1.0 g. In addition, the “Daily Body Weight” value is 22.7 ± 1.2 g (Female mice, Day 7); 19.0 ± 0.7 g (Male mice, Day 1); 24.0 ± 0.7 g (Male mice, Day 2); 24.6 ± 0.8 g (Male mice, Day 3); 24.6 ± 0.8 g (Male mice, Day 4); 26.1 ± 0.7 g (Male mice, Day 5). Moreover, the “Daily Body Weight” value by setting is: (Male mice, Day 6) 28.1 ± 0.6 g; (Male mice, Day 7) 29.3 ± 1.0 g.
`COCCCN1C(=O)CCC(N2C(=O)c3ccc(N)cc3C2=O)C1=O` (stereo not shown) [Example 18, 5-amino-2-(1-(3-methoxypropyl)-2,6-dioxopiperidin-3-yl)isoindolin-1,3-dione]: the “Daily Body Weight” value (Female mice, Day 1) is recorded as 18.4 ± 0.7 g; the “Daily Body Weight” value (Female mice, Day 2) is 22.5 ± 0.8 g; the “Daily Body Weight” value (Female mice, Day 3) is on record as 23.8 ± 1.1 g; the “Daily Body Weight” value (Female mice, Day 4) was 24.8 ± 1.5 g; the “Daily Body Weight” value (Female mice, Day 5) stood at 24.8 ± 0.6 g; the “Daily Body Weight” value (Female mice, Day 6) stood at 25.4 ± 0.7 g. The “Daily Body Weight” value by setting is: (Female mice, Day 7) 25.2 ± 1.1 g; (Male mice, Day 1) 18.2 ± 0.4 g; (Male mice, Day 2) 23.0 ± 0.7 g; (Male mice, Day 3) 24.1 ± 0.4 g; (Male mice, Day 4) 25.6 ± 0.8 g; (Male mice, Day 5) 28.1 ± 1.1 g. Further, the “Daily Body Weight” value is 29.0 ± 1.4 g (Male mice, Day 6) and 29.0 ± 1.0 g (Male mice, Day 7).
With `CCOCCN1C(=O)CCC(N2C(=O)c3cccc(N)c3C2=O)C1=O` (stereo not shown) [Example 19, 4-amino-2-(1-(2-ethoxyethyl)-2,6-dioxopiperidin-3-yl)isoindolin-1,3-dione], the “Daily Body Weight” value runs as follows: (Female mice, Day 1) 18.0 ± 0.6 g; (Female mice, Day 2) 20.7 ± 1.1 g; (Female mice, Day 3) 21.3 ± 0.6 g; (Female mice, Day 4) 22.8 ± 0.3 g; (Female mice, Day 5) 23.2 ± 0.7 g; (Female mice, Day 6) 23.3 ± 1.2 g. The “Daily Body Weight” value is, setting by setting: (Female mice, Day 7) 23.0 ± 1.7 g; (Male mice, Day 1) 18.9 ± 1.2 g; (Male mice, Day 2) 20.7 ± 1.1 g; (Male mice, Day 3) 21.3 ± 0.6 g; (Male mice, Day 4) 25.0 ± 2.0 g; (Male mice, Day 5) 24.8 ± 1.9 g. Also, the “Daily Body Weight” value is, setting by setting: (Male mice, Day 6) 26.5 ± 1.9 g; (Male mice, Day 7) 27.7 ± 2.2 g.

The values above are taken from patent publication US20220372013A2, “PIPERIDINE-2,6-DIONE DERIVATIVES AND CROHN'S DISEASE TREATING” (Tianjin Hemay Pharmaceutical Sci-Tech Co., Ltd, priority 2016, published 2022).
